Measured values from paper PMC8805605, “Discovery of Dimeric Arylsulfonamides as Potent ADAM8 Inhibitors” (ACS Medicinal Chemistry Letters, 2021).

Target: T1, human recombinant ADAM8 (Homo sapiens, UniProt P78325)
T1 construct: kind gift of Franka Scharfenberg, University of Kiel
T1 sequence (P78325 17-824): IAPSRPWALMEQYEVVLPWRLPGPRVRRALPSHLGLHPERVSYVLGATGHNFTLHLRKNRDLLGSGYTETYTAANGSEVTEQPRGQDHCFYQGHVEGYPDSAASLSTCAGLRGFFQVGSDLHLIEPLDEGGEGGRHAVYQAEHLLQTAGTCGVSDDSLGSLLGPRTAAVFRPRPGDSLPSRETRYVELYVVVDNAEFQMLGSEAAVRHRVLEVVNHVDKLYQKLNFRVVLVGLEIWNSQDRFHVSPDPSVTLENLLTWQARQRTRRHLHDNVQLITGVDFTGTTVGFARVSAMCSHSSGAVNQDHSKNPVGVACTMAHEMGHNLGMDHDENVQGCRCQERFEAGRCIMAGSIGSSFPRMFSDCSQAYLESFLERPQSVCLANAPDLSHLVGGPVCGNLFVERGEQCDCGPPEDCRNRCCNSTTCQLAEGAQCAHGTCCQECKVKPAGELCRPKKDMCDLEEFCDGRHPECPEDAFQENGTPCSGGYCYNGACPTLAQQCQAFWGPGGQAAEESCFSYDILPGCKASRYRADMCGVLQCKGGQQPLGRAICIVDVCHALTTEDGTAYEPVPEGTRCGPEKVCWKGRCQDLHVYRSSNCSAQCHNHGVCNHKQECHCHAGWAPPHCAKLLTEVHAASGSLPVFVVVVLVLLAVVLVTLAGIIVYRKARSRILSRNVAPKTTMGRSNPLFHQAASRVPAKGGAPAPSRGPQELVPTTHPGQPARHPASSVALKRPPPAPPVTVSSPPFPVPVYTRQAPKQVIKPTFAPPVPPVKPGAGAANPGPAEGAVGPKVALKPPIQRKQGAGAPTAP
Assay: ADAM8 fluorometric inhibition assay
Format: biochemical
Settings: for IC50: human recombinant enzyme, fluorometric assay, mean of three independent experiments in duplicate, read-out: In vitro inhibitory activity IC50 on ADAM8
Procedure: The newly synthesized bivalent derivatives 1–3 were then tested in vitro on human recombinant ADAM8 in comparison with JG26 by a fluorometric assay. The inhibitory activity against a panel of MMPs and ADAM10/17 was determined as well to assess their selectivity profile.
(RFU). Percent of inhibition was calculated from control reactions without the inhibitor. IC50 was determined using the formula: v i/v o = 1/(1 + [I]/ IC50), where v i is the initial velocity of substrate cleavage in the presence of the inhibitor at concentration [I] and v o is the initial velocity in the absence of the inhibitor. Results were analyzed using SoftMax Pro software (version 5.4.3, Molecular Devices, Sunnyvale, CA) and Prism Software version 5.0 (GraphPad Software, Inc., La Jolla, CA, USA).
ADAM8 and ADAM17 inhibition assays
Recombinant ADAM8 and ADAM17 (kind gift of Franka Scharfenberg, University of Kiel) were diluted in assay buffer (25 mM Tris HCl, pH 8.0. 6x10-4 % Brij, 10 mM CaCl2, 10 mM ZnCl2) to a working concentration of 250 ng and incubated with inhibitors for 45 min in a total volume of 50 µL.
The fluorescent substrate PepDAB1310 was added in a concentration of 10 µM (in a volume of 50 µL). […]

Row | Selectivity for ADAM8 over ADAM10 (ratio of IC50 values ADAM10/ADAM8) [fold] | Times less active than compound 1 on ADAM8 (ratio of ADAM8 IC50 values) [times] | Compound | IC50 [nM]
1 | 740 |  | O=C(CCCNC(=O)c1cccc(C(=O)NCCCC(=O)NCCC[C@@H](NS(=O)(=O)c2ccc(OCc3cc(Br)cc(Br)c3)cc2)C(=O)NO)c1)NCCC[C@@H](NS(=O)(=O)c1ccc(OCc2cc(Br)cc(Br)c2)cc1)C(=O)NO [Compound 1] | 41
2 |  |  | O=C(NCCC[C@@H](NS(=O)(=O)c1ccc(OCc2cc(Br)cc(Br)c2)cc1)C(=O)NO)c1cccc(C(=O)NCCC[C@@H](NS(=O)(=O)c2ccc(OCc3cc(Br)cc(Br)c3)cc2)C(=O)NO)c1 [Compound 2] | 73
3 |  | 14 | O=C(NCCC[C@@H](NS(=O)(=O)c1ccc(OCc2cc(Br)cc(Br)c2)cc1)C(=O)NO)NCCC[C@@H](NS(=O)(=O)c1ccc(OCc2cc(Br)cc(Br)c2)cc1)C(=O)NO [Compound 3] | 567
4 |  |  | NC(=O)NCCC[C@@H](NS(=O)(=O)c1ccc(OCc2cc(Br)cc(Br)c2)cc1)C(=O)NO [JG26, reference compound] | 12
